Data: patent EP4206196A1, “PYRIMIDINE SUBSTITUTED DERIVATIVES AS TYK2 INHIBITORS” (Almirall S.A., priority 2021, dated 2023)

Legend:
[1] = test system: STAT1/3 through TYK2/JAK1; assay: IFNa induced STAT phosphorylation in HEK293 cells (SIE-bla reporter gene); format: cell-based; details: Homo sapiens, HEK293; HEK293T-sie-bla cells, IFNa at EC80, 4 hours; read-out: Inhibition of IFNa induced STAT phosphorylation HEK293 cells IC50
Protocol: Stimulation of HEK293T-sie-bla cells with interferon alpha (INFa) activates the signaling pathway of STAT1/3 through TYK2/JAK1. In this assay, measurement of the activity of the reporter gene […]-lactamase expression was used as the readout.
CellSensorTM SIE-bla HEK293T cell line were purchased from Thermo Fisher Scientific (ref. #K1649B) and cultured as specified by the provider. A number of 30.000 cells per well (40 µl) were plated in a 384-well plate (Corning ref.# 3712) and cultured overnight at 37°C with 5% CO2 in a complete Optimem media (ThermoFisher ref. #11058-021) containing 0.5% (v/v) heat inactivated dialyzed FBS (Life Technologies ref. #26400044), 10 µM non-essential aminoacids NEAA (Sigma ref. #M7145), 100 µM Sodium Pyruvate (Gibco ref. #11360-039) and 100 U/mL Penicillin (Sigma ref. #P0781). Compounds were initially dissolved in 100% DMSO. Compound curves were then prepared using a 1/5 serial dilution (10 dilutions). The dilutions were directly diluted in complete Optimem media at 40-fold their final concentration in 20% DMSO. IFNa initial solution (R&D systems ref. #11100-1) was prepared at 10-fold its EC80 in complete Optimem media. Compounds and IFNa were added simultaneously to the wells with cells and incubated during 4 hours at 37°C (the final DMSO was 0.1%). The […]-lactamase substrate (LifeTechnologies ref.#K1138) was prepared at 6-fold its final concentration as specified by the provider. Then 10 µL of the mixture was added to the wells to stop the stimulation. Plate was left in the dark over-night. Then a FRET reading was performed on an appropriate plate reader.
All experiments were analysed using an ExcelFit template and the four-parameter log equation. […] TABLE 2: IC50 Inhibitions of IFNa induced STAT phosphorylation in HEK293 cells

[2] = molecular target: T1, TYK2 (JH2domain-pseudokinase) (Homo sapiens, UniProt P29597); assay: TYK2 JH2 domain binding assay (KINOMEscan)
T1 construct: TYK2 (JH2domain-pseudokinase)-tagged T7 phage strains were prepared in an E. coli host derived from the BL21 strain; made in house; host or cells: E. coli BL21-derived host (T7 phage) or HEK-293 cells
Protocol: TYK2 (JH2domain-pseudokinase) KINOMEscan assay. For the assay, TYK2 (JH2domain-pseudokinase)-tagged T7 phage strains were prepared in an E. coli host derived from the BL21 strain.E. coli were grown to log-phase and infected with T7 phage and incubated with shaking at 32°C until lysis. The lysates were centrifuged and filtered to remove cell debris. The remaining TYK2 (JH2domain-pseudokinase) were produced in HEK-293 cells and subsequently tagged with DNA for qPCR detection. Streptavidin-coated magnetic beads were treated with biotinylated small molecule ligands for 30 minutes at room temperature to generate affinity resins for kinase assays. The liganded beads were blocked with excess biotin and washed with blocking buffer (SeaBlock (Pierce), 1% BSA, 0.05% Tween 20, 1 mM DTT) to remove unbound ligand and to reduce non-specific binding. Binding reactions were assembled by combining TYK2 (JH2domain-pseudokinase), liganded affinity beads, and test compounds in 1x binding buffer (20% SeaBlock, 0.17x PBS, 0.05% Tween 20, 6 mM DTT). Test compounds were prepared as 111X stocks in 100% DMSO. Kds were determined using an 11-point 3-fold compound dilution series with three DMSO control points. All compounds for Kd measurements are distributed by acoustic transfer (non-contact dispensing) in 100% DMSO. The compounds were then diluted directly into the assays such that the final concentration of DMSO was 0.9%. All reactions performed in polypropylene 384-well plate. Each was a final volume of 0.02 ml. The assay plates were incubated at room temperature with shaking for 1 hour and the affinity beads were washed with wash buffer (1x PBS, 0.05% Tween 20). The beads were then re-suspended in elution buffer (1x PBS, 0.05% Tween 20, 0.5 µM non-biotinylated affinity ligand) and incubated at room temperature with shaking for 30 minutes. The kinase concentration in the eluates was measured by qPCR. […]
An 11-point 3-fold serial dilution of each test compound was prepared in 100% DMSO at 100x final test concentration and subsequently diluted to 1x in the assay (final DMSO concentration = 1%). Most Kds were determined using a compound top concentration = 30,000 nM. If the initial Kd determined was < 0.5 nM (the lowest concentration tested), the measurement was repeated with a serial dilution starting at a lower top concentration.
Curves were fitted using a non-linear least square fit with the Levenberg-Marquardt algorithm. […] TABLE 1: Kd Affinities for Tyk2 JH2 Domain Binding Assay.

T1 sequence (P29597 589-875 limits assumed): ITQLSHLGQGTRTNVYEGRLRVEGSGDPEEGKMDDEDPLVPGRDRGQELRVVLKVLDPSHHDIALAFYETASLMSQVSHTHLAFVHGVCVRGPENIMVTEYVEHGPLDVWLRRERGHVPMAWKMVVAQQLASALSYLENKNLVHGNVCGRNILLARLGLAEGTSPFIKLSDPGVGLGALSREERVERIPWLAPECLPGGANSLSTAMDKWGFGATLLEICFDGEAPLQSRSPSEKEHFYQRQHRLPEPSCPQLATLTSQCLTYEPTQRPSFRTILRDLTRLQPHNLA

IC50 [1] [nM]	Kd [2] [nM]	SMILES
> 1000	> 10	COc1ccccc1Nc1cc(NC(=O)C2CC2)ncn1 [Example 2, N-[6-(2-methoxyanilino)pyrimidin-4-yl]cyclopropanecarboxamide]
> 1000	1 to 10	COc1c(C)cccc1Nc1cc(NC(=O)C2CC2)ncn1 [Example 3, N-[6-(2-methoxy-3-methyl-anilino)pyrimidin-4-yl]cyclopropanecarboxamide]
> 1000	1 to 10	COc1cccc(Nc2cc(Nc3cc(C)nc(C)n3)ncn2)c1 [Example 5, N6-(2,6-dimethylpyrimidin-4-yl)-N4-(3-methoxyphenyl)pyrimidine-4,6-diamine]
> 1000	> 10	COc1c(F)cccc1Nc1cc(Nc2cc(C)nc(C)n2)ncn1 [Example 7, N6-(2,6-dimethylpyrimidin-4-yl)-N4-(3-fluoro-2-methoxy-phenyl) pyrimidine-4,6-diamine]
> 1000	> 10	COc1ccc(C)nc1Nc1cc(Nc2cc(C)nc(C)n2)ncn1 [Example 8, N4-(2,6-dimethylpyrimidin-4-yl)-N6-(3-methoxy-6-methyl-2-pyridyl)pyrimidine-4,6-diamine]
> 1000	> 10	COc1c(C)cccc1Nc1cc(Nc2cnn(C3CCOCC3)c2)ncn1 [Example 9, N4-(2-methoxy-3-methyl-phenyl)-N6-(1-tetrahydropyran-4-ylpyrazol-4-yl)pyrimidine-4,6-diamine]
> 1000	> 10	Cc1cc(Nc2cc(Nc3ccccc3OC(F)(F)F)ncn2)nc(C)n1 [Example 10, N6-(2,6-dimethylpyrimidin-4-yl)-N4-[2-(trifluoromethoxy)phenyl] pyrimidine-4,6-diamine]
10 to 100	0.2 to 1	Cc1cc(Nc2cc(Nc3ccccc3S(C)(=O)=O)ncn2)nc(C)n1 [Example 11, N6-(2,6-dimethylpyrimidin-4-yl)-N4-(2-methylsulfonylphenyl)pyrimidine-4,6-diamine]
> 1000	> 10	CN(c1ccccc1Nc1cc(Nc2ncn(C)n2)ncn1)S(C)(=O)=O [Example 13, N-methyl-N-[2-[[6-[(1-methyl-1,2,4-triazol-3-yl)amino]pyrimidin-4-yl]amino]phenyl]methanesulfonamide]
100 to 1000	0.2 to 1	CN(c1ccccc1Nc1cc(NC(=O)C2CC2)ncn1)S(C)(=O)=O [Example 14, N-[6-[2-[methyl(methylsulfonyl)amino]anilino]pyrimidin-4-yl]cyclopropanecarboxamide]
> 1000		COc1ccc(Nc2cc(Nc3cc(C)nc(C)n3)ncn2)c(OC)c1 [Example 17, N4-(2,4-dimethoxyphenyl)-N6-(2,6-dimethylpyrimidin-4-yl)pyrimidine-4,6-diamine]
	> 10	Cc1cc(Nc2cc(Nc3cnccc3N(C)S(C)(=O)=O)ncn2)nc(C)n1 [Example 35, N-[3-[[6-[(2,6-dimethylpyrimidin-4-yl)amino]pyrimidin-4-yl]amino]pyridin-4-yl]-N-methylmethanesulfonamide]
100 to 1000		COc1c(Nc2cc(Nc3cc(C)nc(C)n3)ncn2)cccc1-c1ncn(C(F)F)n1 [Example 54, N4-[3-[1-(difluoromethyl)-1,2,4-triazol-3-yl]-2-methoxy-phenyl]-N6-(2,6-dimethylpyrimidin-4-yl)pyrimidine-4,6-diamine]
> 1000		COc1c(Nc2cc(Nc3cc(C)nc(C)n3)ncn2)cccc1C1CCCCO1 (centres unmarked) [Example 56, N6-(2,6-dimethylpyrimidin-4-yl)-N4-(2-methoxy-3-tetrahydropyran-2-yl-phenyl)pyrimidine-4,6-diamine]
10 to 100		COc1c(Nc2cc(Nc3cc(C)nc(C)n3)ncn2)cccc1-c1ncn(CC2CCCOC2)n1 (centres unmarked) [Example 57, N4-(2,6-dimethylpyrimidin-4-yl)-N6-[2-methoxy-3-[1-(tetrahydropyran-3-ylmethyl)-1,2,4-triazol-3-yl]phenyl]pyrimidine-4,6-diamine]
100 to 1000		COc1c(Nc2cc(Nc3cc(C)nc(C)n3)ncn2)cccc1-c1ncn(C2CC(O)C2)n1 (centres unmarked) [Example 58, 3-[3-[3-[[6-[(2,6-dimethylpyrimidin-4-yl)amino]pyrimidin-4-yl]amino]-2-methoxy-phenyl]-1,2,4-triazol-1-yl]cyclobutanol]
10 to 100		COc1c(Nc2cc(Nc3cc(C)nc(C)n3)ncn2)cccc1-c1ncn(CC2CCCO2)n1 (centres unmarked) [Example 59, N4-(2,6-dimethylpyrimidin-4-yl)-N6-[2-methoxy-3-[1-(tetrahydrofuran-2-ylmethyl)-1,2,4-triazol-3-yl]phenyl]pyrimidine-4,6-diamine]
10 to 100		COc1c(Nc2cc(Nc3cc(C)nc(C)n3)ncn2)cccc1-c1ncn(CC2CCOC2)n1 (centres unmarked) [Example 60, N6-(2,6-dimethylpyrimidin-4-yl)-N4-[2-methoxy-3-[1-(tetrahydrofuran-3-ylmethyl)-1,2,4-triazol-3-yl]phenyl]pyrimidine-4,6-diamine]
> 1000		Cc1cc(Nc2cc(Nc3ccccc3-c3ncn(C)n3)ncn2)nc(C)n1 [Example 79, N6-(2,6-dimethylpyrimidin-4-yl)-N4-[2-(1-methyl-1,2,4-triazol-3-yl)phenyl]pyrimidine-4,6-diamine]
	1 to 10	COc1cc(-c2nc(C(F)(F)F)n(C)n2)ccc1Nc1cc(Nc2cc(C)nc(C)n2)ncn1 [Example 82, N6-(2,6-dimethylpyrimidin-4-yl)-N4-[2-methoxy-4-[1-methyl-5-(trifluoromethyl)-1,2,4-triazol-3-yl]phenyl]pyrimidine-4,6-diamine]
> 1000		[2H]C([2H])([2H])N(c1cc(-c2cnn(C)c2C)ccc1Nc1cc(Nc2cc(C)nc(C)n2)ncn1)S(C)(=O)=O [Example 98, N-[5-(1,5-dimethylpyrazol-4-yl)-2-[[6-[(2,6-dimethylpyrimidin-4-yl)amino]pyrimidin-4-yl]amino]phenyl]-N-(trideuteriomethyl)methanesulfonamide]
< 10		CN=S(C)(=O)c1cc(C2CC2)ccc1Nc1cc(Nc2cc(C)nc(C)n2)ncn1 (centres unmarked) [Example 118, N4-[4-cyclopropyl-2-(N,S-dimethylsulfonimidoyl)phenyl]-N6-(2,6-dimethylpyrimidin-4-yl)pyrimidine-4,6-diamine]
< 10		Cc1cc(Nc2cc(Nc3ncc(-c4cnn(C)c4C)cc3[S+](C)[O-])ncn2)nc(C)n1 (centres unmarked) [Example 173, N4-[5-(1,5-dimethylpyrazol-4-yl)-3-methylsulfinyl-2-pyridyl]-N6-(2,6-dimethylpyrimidin-4-yl)pyrimidine-4,6-diamine]
10 to 100		COc1c(-c2ncn(C)n2)ccnc1Nc1cc(Nc2ccc(F)c(C)n2)ncn1 [Example 174, N4-(5-fluoro-6-methyl-2-pyridyl)-N6-[3-methoxy-4-(1-methyl-1,2,4-triazol-3-yl)-2-pyridyl]pyrimidine-4,6-diamine]
< 10		Cc1cc(Nc2cc(Nc3ncc(C4CCCCO4)cc3S(C)(=O)=O)ncn2)nc(C)n1 (centres unmarked) [Example 175, 6-N-(2,6-dimethylpyrimidin-4-yl)-4-N-[3-methylsulfonyl-5-(oxan-2-yl)pyridin-2-yl]pyrimidine-4,6-diamine]
